From US10570125B2, “(Cyano-dimethyl-methyl)-isoxazoles and -[1,3,4]thiadiazoles” (Centrexion Therapeutics Corporation, priority 2013, dated 2020)

What was measured:
human MDR1 P-gp = human MDR1 P-gp (Homo sapiens (Human), UniProt P08183); test: MDCK assay: efflux in MDCK-MDR1 cell monolayers (assay 3); type: in vitro ADME; conditions: pH 7.4, 37° C.
Procedure: C. Assessment of Efflux in Madin-Darby Canine Kidney Cells Transfected with the Human MDR1 Gene (MDCK Assay) (Assay 3)
Apparent permeability coefficients (PE) of the compounds across the MDCK-MDR1 cell monolayers are measured (pH 7.4, 37° C.) in apical-to-basal (AB) and basal-to-apical (BA) transport direction. AB permeability (PEAB) represents drug absorption from the blood into the brain and BA permeability (PEBA) drug efflux from the brain back into the blood via both passive permeability as well as active transport mechanisms mediated by efflux and uptake transporters that are expressed on the MDCK-MDR1 cells, predominantly by the overexpressed human MDR1 P-gp. The compounds are assigned to permeability/absorption classes by comparison of the AB permeabilities with the AB permeabilities of reference compounds with known in vitro permeability and oral absorption in the human. Identical or similar permeabilities in both transport directions indicate passive permeation, vectorial permeability points to additional active transport mechanisms. Higher PEBA than PEAB indicates the involvement of active efflux mediated by MDR1 P-gp. Active transport is concentration-dependently saturable. MDCK-MDR1 cells (1-2×10e5 cells/1 cm2 area) are seeded on filter inserts (Costar transwell polycarbonate or PET filters, 0.4 μm pore size) and cultured (DMEM) for 7 days. […]

human CB1R = human CB1R (Homo sapiens (Human), UniProt P21554); test: CB1 cAMP (assay 2); type: cell-based; conditions: CHO cells expressing human CB1R; inhibition of forskolin-stimulated cAMP
Sequence of human CB1R (P21554 whole entry): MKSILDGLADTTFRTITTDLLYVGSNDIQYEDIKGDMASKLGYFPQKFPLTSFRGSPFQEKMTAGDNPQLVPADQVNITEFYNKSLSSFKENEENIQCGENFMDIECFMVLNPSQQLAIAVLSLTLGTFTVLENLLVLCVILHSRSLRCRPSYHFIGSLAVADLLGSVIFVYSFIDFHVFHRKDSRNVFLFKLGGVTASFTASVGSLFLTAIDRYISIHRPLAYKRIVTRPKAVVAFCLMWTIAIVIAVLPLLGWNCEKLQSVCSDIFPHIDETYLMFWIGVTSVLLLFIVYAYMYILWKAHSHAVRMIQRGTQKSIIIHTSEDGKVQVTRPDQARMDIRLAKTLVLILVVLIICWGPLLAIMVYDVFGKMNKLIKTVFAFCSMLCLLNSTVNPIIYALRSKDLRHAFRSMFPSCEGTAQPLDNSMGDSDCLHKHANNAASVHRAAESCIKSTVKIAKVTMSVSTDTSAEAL

Sequence of human MDR1 P-gp (P08183 whole entry): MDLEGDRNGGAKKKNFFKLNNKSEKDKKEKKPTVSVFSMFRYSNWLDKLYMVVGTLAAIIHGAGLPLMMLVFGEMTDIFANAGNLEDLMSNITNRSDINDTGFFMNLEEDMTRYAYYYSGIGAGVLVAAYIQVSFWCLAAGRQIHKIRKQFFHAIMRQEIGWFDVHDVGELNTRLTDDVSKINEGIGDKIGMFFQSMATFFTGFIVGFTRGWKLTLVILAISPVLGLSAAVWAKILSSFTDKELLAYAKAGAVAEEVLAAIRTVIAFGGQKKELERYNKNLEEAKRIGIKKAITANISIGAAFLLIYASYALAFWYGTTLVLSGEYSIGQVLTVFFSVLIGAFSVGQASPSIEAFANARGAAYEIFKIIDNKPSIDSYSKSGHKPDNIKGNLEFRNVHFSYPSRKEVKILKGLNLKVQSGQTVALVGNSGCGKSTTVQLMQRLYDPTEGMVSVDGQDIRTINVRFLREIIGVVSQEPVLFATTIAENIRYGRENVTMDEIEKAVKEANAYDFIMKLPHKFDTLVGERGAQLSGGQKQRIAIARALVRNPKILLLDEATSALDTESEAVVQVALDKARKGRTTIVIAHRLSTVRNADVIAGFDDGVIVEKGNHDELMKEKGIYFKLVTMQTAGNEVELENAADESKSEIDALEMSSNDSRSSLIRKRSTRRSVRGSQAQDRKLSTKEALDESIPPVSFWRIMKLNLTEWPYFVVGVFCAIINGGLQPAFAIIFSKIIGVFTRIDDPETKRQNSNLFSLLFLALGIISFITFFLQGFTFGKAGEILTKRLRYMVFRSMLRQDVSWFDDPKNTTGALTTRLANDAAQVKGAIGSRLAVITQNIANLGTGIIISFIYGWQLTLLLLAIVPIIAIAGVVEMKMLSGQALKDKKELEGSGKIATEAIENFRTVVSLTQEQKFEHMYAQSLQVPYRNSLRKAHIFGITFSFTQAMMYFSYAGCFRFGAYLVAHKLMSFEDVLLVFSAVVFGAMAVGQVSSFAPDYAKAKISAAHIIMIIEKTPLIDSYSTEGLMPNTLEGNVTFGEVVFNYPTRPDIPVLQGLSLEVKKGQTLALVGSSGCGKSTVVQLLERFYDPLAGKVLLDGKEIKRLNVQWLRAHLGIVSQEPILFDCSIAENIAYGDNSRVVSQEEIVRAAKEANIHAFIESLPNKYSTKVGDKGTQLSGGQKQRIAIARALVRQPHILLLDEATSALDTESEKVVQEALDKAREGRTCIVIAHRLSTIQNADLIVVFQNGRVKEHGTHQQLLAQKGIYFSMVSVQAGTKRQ

| Structure (SMILES) | efflux ratio (human MDR1 P-gp; dog, read-out: MDCK efflux ratio (BA/AB)) | EC50 (human CB1R) | MDCK efflux ratio (BA/AB) (human MDR1 P-gp) |
| --- | --- | --- | --- |
| CC(C)(CO)c1cc(NC(=O)C(C)(C)S(=O)(=O)CCCC(F)(F)F)on1 [Example 7 WO2010036630] | 6.9 | 28 µM |  |
| CC(C)(O)c1cc(NC(=O)C(C)(C)S(=O)(=O)CCCC(F)(F)F)on1 [Example 134 in WO2010036630] |  | 26 µM | 3.2 |
